Data published in ChEMBL document CHEMBL3046430, “Synthesis of some new 3,5-diamino-4-(4-fluorophenylazo)-1-aryl/heteroarylpyrazoles as antimicrobial agents” (2013).
Converted amounts (≈) assume the structure as drawn. The source made the active and inactive calls. No cut-off for these calls is given here.

What was measured:
Type in all cases: functional
Klebsiella aerogenes [1] = assay: Antibacterial activity against Enterobacter aerogenes at 2 to 64 ug/ml after 24 hr by agar well diffusion method
Escherichia coli [2] = assay: Antibacterial activity against Escherichia coli at 2 to 64 ug/ml after 24 hr by agar well diffusion method
Saccharomyces cerevisiae [3] = assay: Antifungal activity against Saccharomyces cerevisiae after 7 days by agar well diffusion method
Klebsiella aerogenes [4] = assay: Antibacterial activity against Enterobacter aerogenes after 24 hr by agar well diffusion method
Candida albicans [5] = assay: Antifungal activity against Candida albicans at 2 to 64 ug/ml after 7 days by agar well diffusion method
Escherichia coli [6] = assay: Antibacterial activity against Escherichia coli after 24 hr by agar well diffusion method
Staphylococcus aureus [7] = assay: Antibacterial activity against Staphylococcus aureus at 2 to 64 ug/ml after 24 hr by agar well diffusion method
Bacillus subtilis [8] = assay: Antibacterial activity against Bacillus subtilis at 2 to 64 ug/ml after 24 hr by agar well diffusion method
Saccharomyces cerevisiae [9] = assay: Antifungal activity against Saccharomyces cerevisiae at 2 to 64 ug/ml after 7 days by agar well diffusion method
Aspergillus niger [10] = assay: Antifungal activity against Aspergillus niger after 7 days by agar well diffusion method
Staphylococcus aureus [11] = assay: Antibacterial activity against Staphylococcus aureus after 24 hr by agar well diffusion method
Aspergillus niger [12] = assay: Antifungal activity against Aspergillus niger at 2 to 64 ug/ml after 7 days by agar well diffusion method
Candida albicans [13] = assay: Antifungal activity against Candida albicans after 7 days by agar well diffusion method
Bacillus subtilis [14] = assay: Antibacterial activity against Bacillus subtilis after 24 hr by agar well diffusion method

Row | SMILES | diameter of the inhibition zone (DIZ) (Klebsiella aerogenes [1]) | Activity (Escherichia coli [2]) | MIC (Saccharomyces cerevisiae [3]) | MIC (Klebsiella aerogenes [4]) | diameter of the inhibition zone (DIZ) (Candida albicans [5]) | MIC (Escherichia coli [6]) | Activity (Staphylococcus aureus [7]) | Activity (Bacillus subtilis [8]) | Activity (Saccharomyces cerevisiae [9]) | MIC (Aspergillus niger [10]) | MIC (Staphylococcus aureus [11]) | Activity (Aspergillus niger [12]) | MIC (Candida albicans [13]; 168 h) | MIC (Bacillus subtilis [14]) | MIC (Saccharomyces cerevisiae [3]; 168 h) | diameter of the inhibition zone (DIZ) (Saccharomyces cerevisiae [9]) | diameter of the inhibition zone (DIZ) (Escherichia coli [2]) | diameter of the inhibition zone (DIZ) (Bacillus subtilis [8]) | further results
1 | Nc1nn(-c2nc3ccc(Cl)cc3s2)c(N)c1/N=N/c1ccc(F)cc1 | 10 mm | inactive | inactive | 2 µg/mL (≈ 5.16 µM) | 12 mm | inactive | inactive | inactive | inactive | inactive | inactive | inactive | 2 µg/mL (≈ 5.16 µM) | inactive | – | – | – | – | –
2 | Nc1nn(-c2ccc(Cl)cc2)c(N)c1/N=N/c1ccc(F)cc1 | 12 mm | inactive | inactive | 2 µg/mL (≈ 6.05 µM) | 9 mm | inactive | inactive | inactive | inactive | inactive | inactive | inactive | 2 µg/mL (≈ 6.05 µM) | inactive | – | – | – | – | –
3 | OC(Cn1cncn1)(Cn1cncn1)c1ccc(F)cc1F [FLUCONAZOLE] | – | inactive | – | inactive | 10 mm | inactive | inactive | inactive | – | – | inactive | – | 2 µg/mL (≈ 6.53 µM) | inactive | 4 µg/mL (≈ 13.1 µM) | 12 mm | – | – | Activity (Klebsiella aerogenes [1]): inactive; MIC (Aspergillus niger [10]; 168 h): 2 µg/mL (≈ 6.53 µM); diameter of the inhibition zone (DIZ) (Aspergillus niger [12]): 13 mm
4 | C=CC1=C(C(=O)O)N2C(=O)[C@@H](NC(=O)/C(=N\OCC(=O)O)c3csc(N)n3)[C@H]2SC1 [CEFIXIME] | 15 mm | – | inactive | 2 µg/mL (≈ 4.41 µM) | – | 2 µg/mL (≈ 4.41 µM) | – | – | inactive | inactive | 2 µg/mL (≈ 4.41 µM) | inactive | – | 4 µg/mL (≈ 8.82 µM) | – | – | 14 mm | 2.8 mm | Activity (Candida albicans [5]): inactive; diameter of the inhibition zone (DIZ) (Staphylococcus aureus [7]): 2.9 mm; MIC (Candida albicans [13]): inactive
5 | Cc1cc(C)nc(-n2nc(N)c(/N=N/c3ccc(F)cc3)c2N)n1 | 9 mm | inactive | – | 8 µg/mL (≈ 24.5 µM) | 9 mm | inactive | – | inactive | – | inactive | 16 µg/mL (≈ 49 µM) | inactive | 2 µg/mL (≈ 6.13 µM) | inactive | 8 µg/mL (≈ 24.5 µM) | 10 mm | – | – | diameter of the inhibition zone (DIZ) (Staphylococcus aureus [7]): 4.5 mm
6 | Cc1cc(-n2nc(N)c(/N=N/c3ccc(F)cc3)c2N)nc2ccccc12 | 15 mm | – | inactive | 8 µg/mL (≈ 22.1 µM) | 10 mm | 2 µg/mL (≈ 5.53 µM) | – | – | inactive | inactive | 2 µg/mL (≈ 5.53 µM) | inactive | 64 µg/mL (≈ 177 µM) | 4 µg/mL (≈ 11.1 µM) | – | – | 15 mm | 12 mm | diameter of the inhibition zone (DIZ) (Staphylococcus aureus [7]): 2.6 mm
7 | Nc1nn(-c2nc3ccccc3s2)c(N)c1/N=N/c1ccc(F)cc1 | 14 mm | – | – | 2 µg/mL (≈ 5.66 µM) | 12 mm | 8 µg/mL (≈ 22.6 µM) | inactive | – | – | inactive | inactive | inactive | 2 µg/mL (≈ 5.66 µM) | 6 µg/mL (≈ 17 µM) | 6 µg/mL (≈ 17 µM) | 9 mm | 12 mm | 9 mm | –
8 | Nc1nn(-c2ccc([N+](=O)[O-])cc2[N+](=O)[O-])c(N)c1/N=N/c1ccc(F)cc1 | 13 mm | – | – | 2 µg/mL (≈ 5.18 µM) | 11 mm | 2 µg/mL (≈ 5.18 µM) | inactive | – | – | – | inactive | – | 2 µg/mL (≈ 5.18 µM) | 4 µg/mL (≈ 10.4 µM) | 8 µg/mL (≈ 20.7 µM) | 12 mm | 13 mm | 10 mm | MIC (Aspergillus niger [10]; 168 h): 2 µg/mL (≈ 5.18 µM); diameter of the inhibition zone (DIZ) (Aspergillus niger [12]): 10 mm
9 | Nc1nn(-c2nc3ccc(F)cc3s2)c(N)c1/N=N/c1ccc(F)cc1 | 11 mm | inactive | inactive | 4 µg/mL (≈ 10.8 µM) | – | inactive | inactive | – | inactive | – | inactive | – | – | 4 µg/mL (≈ 10.8 µM) | – | – | – | 12 mm | Activity (Candida albicans [5]): inactive; MIC (Aspergillus niger [10]; 168 h): 2 µg/mL (≈ 5.39 µM); diameter of the inhibition zone (DIZ) (Aspergillus niger [12]): 14 mm; MIC (Candida albicans [13]): inactive
10 | Cc1ccc2nc(-n3nc(N)c(/N=N/c4ccc(F)cc4)c3N)sc2c1 | 10.5 mm | inactive | inactive | 2 µg/mL (≈ 5.44 µM) | 11 mm | inactive | inactive | inactive | inactive | inactive | inactive | inactive | 2 µg/mL (≈ 5.44 µM) | inactive | – | – | – | – | –
11 | Nc1nn(-c2ccccc2)c(N)c1/N=N/c1ccc(F)cc1 | 12 mm | – | – | 32 µg/mL (≈ 108 µM) | 7 mm | 2 µg/mL (≈ 6.75 µM) | inactive | – | – | inactive | inactive | inactive | 2 µg/mL (≈ 6.75 µM) | 8 µg/mL (≈ 27 µM) | 4 µg/mL (≈ 13.5 µM) | 12 mm | 12 mm | 10 mm | –
